# Measurements reported in the SangsterLogP compilation.
row,logP,Compound
1,1.67,CC(C)CC(C)O (stereo unspecified)
2,2.31,CCCCC(O)CC (stereo unspecified)
3,2.39,CCCC(C)(C)CO
4,3.36,CCCCCC(O)CCC (stereo unspecified)
5,2.27,CCC(O)C(C)(C)C (stereo unspecified)
6,3.36,CCCCCCC(O)CC (stereo unspecified)
7,6.64,CCCCCCCCCCCCCCCO
8,6.11,CCCCCCCCCCCCCCO
9,1.57,CCC(C)(C)CO
10,2.31,CC(C)C(O)C(C)C
11,2.39,CC(C)(C)CCCO
12,1.67,CC(C)CC(C)(C)O
13,3.36,CCCCC(O)CCCC
14,2.19,CC(C)CC(C)CO (stereo unspecified)
15,1.78,CCC(CC)CO

row,Compound,logP
1,CC(C)(C)CCO,1.57
